# Measured values published in ChEMBL document CHEMBL1142765, “Discodermolide analogues as the chemical component of combination bacteriolytic therapy” (Bioorg Med Chem Lett, 2005).
# Columns and labels:
# Format in all cases: functional, organism-based
# Conditions in all cases: Homo sapiens
# MCF7 = assay: Inhibitory concentration […] exhibited against MCF-7 cell line […]
# A549 = assay: Inhibitory concentration […] exhibited against A549 cell line […]
# SK-OV-3 = assay: Inhibitory concentration […] exhibited against SKOV3 cell line […]
Structure (SMILES),IC50 (MCF7),IC50 (A549),IC50 (SK-OV-3)
C=C/C=C\[C@H](C)[C@H](OC(N)=O)[C@@H](C)[C@H](O)[C@@H](C)C/C(C)=C\[C@H](C)[C@@H](O)[C@@H](C)/C=C\[C@@H](O)C[C@@H]1OC(=O)C=C[C@H]1C,0.0021 µM,0.0037 µM,0.0034 µM
C=C/C=C\[C@H](C)[C@H](OC(N)=O)[C@@H](C)[C@H](O)[C@@H](C)C/C(C)=C\[C@H](C)[C@@H](O)[C@@H](C)/C=C\[C@@H](O)C[C@@H]1OC(=O)C(C)=C[C@H]1C,0.0056 µM,0.0086 µM,0.0034 µM
C=C/C=C\[C@H](C)[C@H](OC(N)=O)[C@@H](C)[C@H](O)[C@@H](C)C/C=C\[C@H](C)[C@@H](O)[C@@H](C)/C=C\[C@@H](O)C[C@@H]1OC(=O)[C@H](C)[C@@H](O)[C@H]1C,0.046 µM,0.05 µM,0.035 µM
C=C/C=C\[C@H](C)[C@H](OC(N)=O)[C@@H](C)[C@H](O)[C@@H](C)C/C(C)=C\[C@H](C)[C@@H](O)[C@@H](C)/C=C\[C@@H](O)C[C@@H]1OC(=O)[C@H](C)[C@@H](O)[C@H]1C [DISERMOLIDE],0.028 µM,0.022 µM,0.021 µM
